Active and inactive are the calls of the source.
How the values were obtained:
[1] = cells; format: functional, cell-based
[2] = A Cell Based Secondary Assay To Explore Cytotoxicity of Compounds that Sensitize Mycobacterium Tuberculosis to Beta-Lactam Antibiotics.; format: functional
[3] = cells; format: functional, cell-based; remark: listed apart in the source
[4] = biological target: Bcl-2-like protein 10 (Homo sapiens, UniProt Q9HD36); assay: Bcl-B/TR3 peptide binding disruption – biochemical, fluorescence polarization, FITC-TR3 peptide, selectivity assay for Bfl-1 inhibitor project, primary screen (AID 748);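 also: fluorescence polarization from a fluorescein-labelled TR3 peptide binding purified Bcl-B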
Bcl-2-like protein 10, sequence (Q9HD36 whole entry): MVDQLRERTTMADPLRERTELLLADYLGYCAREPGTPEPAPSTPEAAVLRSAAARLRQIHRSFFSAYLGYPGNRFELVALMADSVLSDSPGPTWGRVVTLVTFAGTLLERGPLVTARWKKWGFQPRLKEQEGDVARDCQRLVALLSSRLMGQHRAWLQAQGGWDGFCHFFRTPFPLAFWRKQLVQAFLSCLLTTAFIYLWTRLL

[5] = system: HeLa; assay: viability loss in HeLa cells – cell-based, 24 h, cherry-picked samples, cytotoxicity control, dose response (AID 504726); format: functional; conditions: Homo sapiens;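 also: potency for cytotoxicity as loss of luminescence signal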
[6] = viability of uninfected HEp-2 cells – cell-based, HTS, cytotoxicity control for RSV inhibitor project, dose response (AID 2410); format: functional; conditions: human respiratory syncytial virus
[7] = biological target: T1, RNA-binding protein pos-1 (Caenorhabditis elegans, UniProt G5EF15); assay: disruptors of C. elegans POS-1 RNA interaction – biochemical, fluorescence polarization, dose response (AID 1964);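 also: purified POS-1 fused to maltose binding protein made in E. coli; potency of compounds blocking POS-1 binding to fluorescent RNA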
T1 sequence (G5EF15 whole entry): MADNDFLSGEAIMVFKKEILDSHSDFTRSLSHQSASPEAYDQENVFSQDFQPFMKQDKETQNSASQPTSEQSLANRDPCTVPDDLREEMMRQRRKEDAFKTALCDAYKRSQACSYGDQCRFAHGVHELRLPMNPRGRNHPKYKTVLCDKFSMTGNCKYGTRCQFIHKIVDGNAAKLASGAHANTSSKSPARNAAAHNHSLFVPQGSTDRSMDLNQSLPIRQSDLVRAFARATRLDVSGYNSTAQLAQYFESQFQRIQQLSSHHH

[8] = Trypanosoma cruzi growth suppression in host cells – NIH3T3 host cells, beta-gal luminescence, confirmation (AID 2044); format: functional, cell-based;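 also: intracellular parasites grown in NIH/3T3 mouse fibroblasts as host cells; luminescent beta-galactosidase reporter signal from transgenic T. cruzi replicating inside host cells; inhibitors lower the luminescence signal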
[9] = NIH3T3 cell viability loss – ATP luminescence, mouse fibroblasts, counter-screen, dose response (AID 2010); format: functional, cell-based;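 also: cells exposed to compound for about 90 hours before reading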
[10] = biological target: T2, Zinc finger protein mex-5 (Caenorhabditis elegans, UniProt Q9XUB2); assay: potency of MEX-5 RNA-binding blockers – biochemical, C. elegans, fluorescence polarization, dose response (AID 1960)
T2 sequence (Q9XUB2 whole entry): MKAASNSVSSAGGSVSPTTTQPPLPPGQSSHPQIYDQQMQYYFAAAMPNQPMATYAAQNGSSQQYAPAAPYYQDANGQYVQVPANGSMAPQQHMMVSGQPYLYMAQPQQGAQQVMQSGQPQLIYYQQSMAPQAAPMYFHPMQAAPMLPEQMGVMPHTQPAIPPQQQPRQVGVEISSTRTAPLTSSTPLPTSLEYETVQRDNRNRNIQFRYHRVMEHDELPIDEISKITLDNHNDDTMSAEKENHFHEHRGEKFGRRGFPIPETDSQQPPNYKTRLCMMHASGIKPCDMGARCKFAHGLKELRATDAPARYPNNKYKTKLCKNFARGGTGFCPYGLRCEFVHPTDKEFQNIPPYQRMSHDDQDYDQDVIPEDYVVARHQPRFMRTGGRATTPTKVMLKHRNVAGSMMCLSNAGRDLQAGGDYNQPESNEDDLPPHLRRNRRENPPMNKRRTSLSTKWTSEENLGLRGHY

[11] = system: HeLa; assay: ATP-based viability loss in HeLa cells – cell-based, CellTiter-Glo luminescence, cherry-pick samples, cytotoxicity control for MITF activator project, dose response (AID 540259); format: functional; conditions: Homo sapiens
[12] = system: Vero; assay: cells; format: functional; conditions: Chlorocebus sabaeus
[13] = cells
[14] = system: Vero; assay: cells; format: functional, cell-based; conditions: Chlorocebus sabaeus
[15] = biological target: Eukaryotic translation initiation factor 4H (Homo sapiens, UniProt Q15056); assay: eIF4H binding inhibition – biochemical, uHTS, fluorescence polarization, translation initiation inhibitor project, primary screen (AID 2012)
[16] = biological target: DNA dC->dU-editing enzyme APOBEC-3G (Homo sapiens, UniProt Q9HC16); format: functional;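 also: Dose-response counterscreen measuring inhibition of APOBEC3G DNA deaminase activity, run while confirming APOBEC3A inhibitors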
DNA dC->dU-editing enzyme APOBEC-3G, sequence (Q9HC16 whole entry): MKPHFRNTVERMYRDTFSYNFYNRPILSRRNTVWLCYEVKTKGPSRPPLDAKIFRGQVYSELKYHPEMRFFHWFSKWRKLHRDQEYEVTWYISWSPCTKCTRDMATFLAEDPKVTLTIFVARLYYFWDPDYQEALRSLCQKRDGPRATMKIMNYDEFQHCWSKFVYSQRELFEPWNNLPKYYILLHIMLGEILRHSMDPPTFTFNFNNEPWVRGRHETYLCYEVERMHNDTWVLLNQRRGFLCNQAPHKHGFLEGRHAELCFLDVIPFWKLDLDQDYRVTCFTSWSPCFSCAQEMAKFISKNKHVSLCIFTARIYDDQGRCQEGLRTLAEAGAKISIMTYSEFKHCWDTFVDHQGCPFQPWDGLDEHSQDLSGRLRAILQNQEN

[17] = biological target: Polyadenylate-binding protein 1 (Homo sapiens, UniProt P11940); assay: blockers of PABP interaction with poly(A) – biochemical, fluorescence polarization, […] (AID 2014)
[18] = biological target: DNA dC->dU-editing enzyme APOBEC-3A (Homo sapiens, UniProt P31941); assay: Dose Response confirmation of small molecule APOBEC3A DNA Deaminase Inhibitors via a fluorescence-based single-stranded DNA deaminase assay. [Related pubchem assays (depositor defined):AID493011, AID493024]; format: functional
[19] = biological target: Luciferin 4-monooxygenase (Photinus pyralis, UniProt P08659); assay: inhibition of purified Photinus pyralis luciferase – biochemical, luminescence, dose response (AID 1891)
Luciferin 4-monooxygenase, sequence (P08659 whole entry): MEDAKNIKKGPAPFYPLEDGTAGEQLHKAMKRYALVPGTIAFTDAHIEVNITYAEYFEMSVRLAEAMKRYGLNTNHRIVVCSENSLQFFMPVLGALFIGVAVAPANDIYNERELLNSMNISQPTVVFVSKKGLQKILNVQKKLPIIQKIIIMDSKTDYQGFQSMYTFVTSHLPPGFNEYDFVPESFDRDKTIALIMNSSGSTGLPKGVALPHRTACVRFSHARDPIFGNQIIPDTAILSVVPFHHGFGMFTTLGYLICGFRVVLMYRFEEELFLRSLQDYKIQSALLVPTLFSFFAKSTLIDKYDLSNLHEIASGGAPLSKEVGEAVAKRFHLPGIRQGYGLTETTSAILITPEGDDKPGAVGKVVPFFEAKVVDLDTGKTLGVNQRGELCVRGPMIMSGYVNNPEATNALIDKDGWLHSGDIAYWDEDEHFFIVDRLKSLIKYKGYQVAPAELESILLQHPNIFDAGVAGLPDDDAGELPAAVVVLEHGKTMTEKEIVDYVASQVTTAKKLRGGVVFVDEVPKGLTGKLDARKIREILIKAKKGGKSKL

[20] = biological target: Cyclin-dependent kinase 5/CDK5 activator 1 (Homo sapiens, UniProt Q00535); assay: blockade of human CDK5 activity – biochemical, cherry-picked samples, set 2, dose response (AID 504545)
Cyclin-dependent kinase 5/CDK5 activator 1, sequence (Q00535 whole entry): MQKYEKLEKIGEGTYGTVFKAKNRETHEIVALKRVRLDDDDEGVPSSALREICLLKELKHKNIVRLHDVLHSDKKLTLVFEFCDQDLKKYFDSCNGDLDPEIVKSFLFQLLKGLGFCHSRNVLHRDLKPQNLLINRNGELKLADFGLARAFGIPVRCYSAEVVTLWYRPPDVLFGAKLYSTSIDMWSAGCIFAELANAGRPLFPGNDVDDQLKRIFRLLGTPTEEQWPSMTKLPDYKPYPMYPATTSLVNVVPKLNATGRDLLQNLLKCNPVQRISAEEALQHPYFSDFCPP
Cyclin-dependent kinase 5/CDK5 activator 1, sequence (Q15078 whole entry, further chain): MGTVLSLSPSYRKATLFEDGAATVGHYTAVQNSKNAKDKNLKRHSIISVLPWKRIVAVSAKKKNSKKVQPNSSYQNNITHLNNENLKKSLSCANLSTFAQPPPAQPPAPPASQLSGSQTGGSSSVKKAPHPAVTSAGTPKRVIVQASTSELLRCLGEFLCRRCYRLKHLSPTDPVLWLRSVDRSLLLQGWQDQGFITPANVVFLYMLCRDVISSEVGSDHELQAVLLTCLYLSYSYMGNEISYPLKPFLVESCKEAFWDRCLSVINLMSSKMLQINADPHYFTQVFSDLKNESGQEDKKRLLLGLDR

[21] = biological target: Cytochrome P450 2C19 (Homo sapiens, UniProt P33261); assay: Cytochrome panel assay with activity outcomes. Panel member name: p450-cyp2c19 Compounds with AC50 equal or less than 10 uM are considered active; format: functional; conditions: read-out: AC50
Cytochrome P450 2C19, sequence (P33261 whole entry): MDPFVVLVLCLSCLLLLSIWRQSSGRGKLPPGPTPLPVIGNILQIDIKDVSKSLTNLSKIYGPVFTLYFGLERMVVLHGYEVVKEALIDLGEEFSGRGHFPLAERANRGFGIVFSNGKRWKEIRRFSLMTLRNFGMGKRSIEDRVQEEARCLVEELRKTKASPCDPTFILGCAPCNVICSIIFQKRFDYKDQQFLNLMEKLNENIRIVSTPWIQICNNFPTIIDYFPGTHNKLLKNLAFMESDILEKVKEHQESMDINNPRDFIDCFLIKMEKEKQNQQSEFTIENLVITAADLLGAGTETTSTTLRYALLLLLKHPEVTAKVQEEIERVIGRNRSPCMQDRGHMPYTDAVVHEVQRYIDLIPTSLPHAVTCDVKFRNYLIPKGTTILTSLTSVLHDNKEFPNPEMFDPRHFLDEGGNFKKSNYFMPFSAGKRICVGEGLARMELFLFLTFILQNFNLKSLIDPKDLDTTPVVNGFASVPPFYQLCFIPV

[22] = biological target: T3, Hexokinase HKDC1 (Homo sapiens, UniProt Q2TB90); assay: inhibition of HKDC1 glucose phosphorylation – biochemical, W721R variant, dose response (AID 504729); format: functional
T3 sequence (Q2TB90 whole entry): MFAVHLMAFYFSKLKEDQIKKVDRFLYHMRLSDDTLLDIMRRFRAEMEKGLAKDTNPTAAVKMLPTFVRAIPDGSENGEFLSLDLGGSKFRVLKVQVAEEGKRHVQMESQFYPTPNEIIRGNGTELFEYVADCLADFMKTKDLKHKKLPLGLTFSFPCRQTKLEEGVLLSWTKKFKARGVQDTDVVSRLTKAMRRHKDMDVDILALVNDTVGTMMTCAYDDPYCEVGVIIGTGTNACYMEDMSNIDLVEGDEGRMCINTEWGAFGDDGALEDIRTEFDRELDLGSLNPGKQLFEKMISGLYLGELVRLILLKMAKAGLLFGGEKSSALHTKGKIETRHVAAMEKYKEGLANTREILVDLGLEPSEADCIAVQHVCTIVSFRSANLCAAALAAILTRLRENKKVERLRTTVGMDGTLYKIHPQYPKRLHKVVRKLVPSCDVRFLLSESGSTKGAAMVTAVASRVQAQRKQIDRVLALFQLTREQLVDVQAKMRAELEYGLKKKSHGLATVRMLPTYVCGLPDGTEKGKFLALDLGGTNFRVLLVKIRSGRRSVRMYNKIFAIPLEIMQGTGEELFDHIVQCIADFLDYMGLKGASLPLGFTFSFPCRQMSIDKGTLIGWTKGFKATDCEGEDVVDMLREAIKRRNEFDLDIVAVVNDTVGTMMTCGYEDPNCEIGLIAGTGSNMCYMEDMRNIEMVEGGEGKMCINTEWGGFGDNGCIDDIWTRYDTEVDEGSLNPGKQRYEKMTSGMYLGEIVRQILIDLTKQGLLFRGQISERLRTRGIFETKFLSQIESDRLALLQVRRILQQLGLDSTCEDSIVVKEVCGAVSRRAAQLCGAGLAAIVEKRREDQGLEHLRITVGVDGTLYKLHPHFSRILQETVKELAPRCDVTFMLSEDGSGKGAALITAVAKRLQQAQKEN

[23] = biological target: Cytochrome P450 3A4 (Homo sapiens, UniProt P08684);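 also: CYP3A4 tested as one member of a cytochrome P450 panel screen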
Cytochrome P450 3A4, sequence (P08684 whole entry): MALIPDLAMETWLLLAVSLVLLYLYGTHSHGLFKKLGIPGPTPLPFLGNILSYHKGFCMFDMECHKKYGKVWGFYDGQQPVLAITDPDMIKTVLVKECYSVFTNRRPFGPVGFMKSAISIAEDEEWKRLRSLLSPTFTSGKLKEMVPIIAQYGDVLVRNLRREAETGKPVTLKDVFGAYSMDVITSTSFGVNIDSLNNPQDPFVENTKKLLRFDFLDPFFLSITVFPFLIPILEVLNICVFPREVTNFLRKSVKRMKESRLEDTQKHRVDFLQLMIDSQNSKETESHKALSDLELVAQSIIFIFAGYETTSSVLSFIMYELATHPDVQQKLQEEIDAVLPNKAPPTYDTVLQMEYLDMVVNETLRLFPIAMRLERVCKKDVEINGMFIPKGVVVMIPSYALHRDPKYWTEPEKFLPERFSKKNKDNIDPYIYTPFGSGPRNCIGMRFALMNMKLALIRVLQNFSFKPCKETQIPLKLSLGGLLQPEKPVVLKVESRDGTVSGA

[24] = biological target: Induced myeloid leukemia cell differentiation protein Mcl-1 (Homo sapiens, UniProt Q07820); format: functional
Induced myeloid leukemia cell differentiation protein Mcl-1, sequence (Q07820 whole entry): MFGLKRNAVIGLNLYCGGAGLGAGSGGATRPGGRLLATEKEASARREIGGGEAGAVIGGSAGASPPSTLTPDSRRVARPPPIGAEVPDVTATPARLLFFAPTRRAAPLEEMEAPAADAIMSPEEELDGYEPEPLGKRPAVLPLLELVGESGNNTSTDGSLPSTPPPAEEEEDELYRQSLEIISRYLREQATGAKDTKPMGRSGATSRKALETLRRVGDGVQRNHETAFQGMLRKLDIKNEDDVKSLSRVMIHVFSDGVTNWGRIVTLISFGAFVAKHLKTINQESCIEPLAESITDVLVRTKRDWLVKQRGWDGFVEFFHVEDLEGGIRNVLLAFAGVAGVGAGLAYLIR

[25] = biological target: Cytochrome P450 2D6 (Homo sapiens, UniProt P10635);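 also: CYP2D6 member of a cytochrome P450 panel assay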
Cytochrome P450 2D6, sequence (P10635 whole entry): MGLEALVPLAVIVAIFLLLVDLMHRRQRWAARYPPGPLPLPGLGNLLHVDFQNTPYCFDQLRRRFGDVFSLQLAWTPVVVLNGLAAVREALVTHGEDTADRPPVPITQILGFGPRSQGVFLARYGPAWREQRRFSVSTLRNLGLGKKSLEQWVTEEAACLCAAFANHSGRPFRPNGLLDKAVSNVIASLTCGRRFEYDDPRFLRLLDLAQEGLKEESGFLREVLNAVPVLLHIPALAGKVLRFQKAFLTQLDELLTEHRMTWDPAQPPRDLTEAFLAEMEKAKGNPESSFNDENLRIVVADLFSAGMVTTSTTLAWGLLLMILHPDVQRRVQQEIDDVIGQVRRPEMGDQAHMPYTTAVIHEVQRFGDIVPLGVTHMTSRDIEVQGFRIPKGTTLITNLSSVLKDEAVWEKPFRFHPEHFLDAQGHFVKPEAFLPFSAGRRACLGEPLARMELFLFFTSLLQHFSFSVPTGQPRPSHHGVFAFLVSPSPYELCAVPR

[26] = system: HeLa; assay: Cytotoxicity counterscreen assay for transcriptional activators of heat shock protein 70 (Hsp70). [Related pubchem assays: 1203, 1252 ]; format: functional; conditions: Homo sapiens
[27] = biological target: FAD-linked sulfhydryl oxidase ALR (Homo sapiens, UniProt P55789); assay: ALR-catalysed DTT oxidation blockers – biochemical, H2O2 detection, luminescence, cherry-pick, dose response (AID 493248)
[28] = biological target: Genome polyprotein (dengue virus type 2, UniProt P29990); assay: flavivirus cap methylation enzyme inhibition – biochemical, confirmation dose response, primary screen (AID 588689); format: functional
[29] = CCR5-tropic HIV-1 fusion blockers – cell-based, CCR5-tropic Env, dose response (AID 2279); format: functional
[30] = M. tuberculosis H37Rv growth inhibitors, H37Rv strain (AID 1626); format: functional
[31] = Luminescence Cell-Based Dose Confirmation HTS to Identify Inhibitors of Platelet Dense Granule Release. [Related pubchem assays: 1663 (Primary HTS), 1678 (Summary of Project)]; format: functional
[32] = biological target: T4, Rac GTPase-activating protein 1 (Homo sapiens, UniProt Q9H0H5); assay: blockers of MgcRacGAP-driven Rac1 GTP hydrolysis – biochemical, ADP Hunter fluorescence, primary and confirmatory, confirmation (AID 624330); format: functional
T4 sequence (Q9H0H5 whole entry): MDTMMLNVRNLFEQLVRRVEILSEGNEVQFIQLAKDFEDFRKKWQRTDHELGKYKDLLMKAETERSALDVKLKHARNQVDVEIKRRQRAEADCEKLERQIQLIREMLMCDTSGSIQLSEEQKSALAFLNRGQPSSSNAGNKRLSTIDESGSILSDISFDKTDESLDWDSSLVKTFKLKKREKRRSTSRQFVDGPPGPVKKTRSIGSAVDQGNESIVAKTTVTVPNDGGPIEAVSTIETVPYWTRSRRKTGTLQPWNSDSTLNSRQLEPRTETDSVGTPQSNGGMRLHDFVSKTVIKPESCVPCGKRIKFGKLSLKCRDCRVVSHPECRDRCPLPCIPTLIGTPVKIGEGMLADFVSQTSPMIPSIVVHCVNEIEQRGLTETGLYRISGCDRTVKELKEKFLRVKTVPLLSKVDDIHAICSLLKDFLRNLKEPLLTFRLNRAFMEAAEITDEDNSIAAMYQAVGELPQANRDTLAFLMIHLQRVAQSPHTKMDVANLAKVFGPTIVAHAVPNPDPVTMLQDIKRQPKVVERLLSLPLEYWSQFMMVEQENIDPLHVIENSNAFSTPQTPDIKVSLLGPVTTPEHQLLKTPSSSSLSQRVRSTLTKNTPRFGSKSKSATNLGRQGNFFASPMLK

[33] = biological target: Wee1-like protein kinase (Homo sapiens, UniProt P30291); assay: HeLa cell cycle G2/M accumulation – FACS, mechanism study for Wee1 degradation inhibitor project, late-stage follow-up, panel member Wee1 Degradation (AID 2088)
Wee1-like protein kinase, sequence (P30291 whole entry): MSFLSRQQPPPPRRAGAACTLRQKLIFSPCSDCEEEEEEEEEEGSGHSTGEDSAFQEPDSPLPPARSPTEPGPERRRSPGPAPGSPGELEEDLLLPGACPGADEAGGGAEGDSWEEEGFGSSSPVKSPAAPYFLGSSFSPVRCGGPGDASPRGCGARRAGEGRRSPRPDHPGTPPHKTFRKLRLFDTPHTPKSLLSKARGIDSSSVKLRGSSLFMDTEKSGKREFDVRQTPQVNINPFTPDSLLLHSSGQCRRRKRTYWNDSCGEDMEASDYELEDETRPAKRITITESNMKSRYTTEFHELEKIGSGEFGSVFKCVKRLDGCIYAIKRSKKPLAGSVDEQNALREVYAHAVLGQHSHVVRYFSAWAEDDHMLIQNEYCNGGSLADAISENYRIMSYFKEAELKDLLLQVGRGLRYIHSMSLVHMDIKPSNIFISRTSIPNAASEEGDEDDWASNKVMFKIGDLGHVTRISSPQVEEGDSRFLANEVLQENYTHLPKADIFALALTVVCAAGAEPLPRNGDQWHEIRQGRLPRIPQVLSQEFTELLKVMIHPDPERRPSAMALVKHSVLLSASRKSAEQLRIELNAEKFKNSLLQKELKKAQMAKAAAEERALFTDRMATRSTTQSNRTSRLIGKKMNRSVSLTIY

[34] = biological target: G2/mitotic-specific cyclin-B1 (Homo sapiens, UniProt P14635); assay: HeLa cell cycle G2/M accumulation – FACS, mechanism study for Wee1 degradation inhibitor project, late-stage follow-up, panel member Cyclin B Degradation (AID 2088)
G2/mitotic-specific cyclin-B1, sequence (P14635 whole entry): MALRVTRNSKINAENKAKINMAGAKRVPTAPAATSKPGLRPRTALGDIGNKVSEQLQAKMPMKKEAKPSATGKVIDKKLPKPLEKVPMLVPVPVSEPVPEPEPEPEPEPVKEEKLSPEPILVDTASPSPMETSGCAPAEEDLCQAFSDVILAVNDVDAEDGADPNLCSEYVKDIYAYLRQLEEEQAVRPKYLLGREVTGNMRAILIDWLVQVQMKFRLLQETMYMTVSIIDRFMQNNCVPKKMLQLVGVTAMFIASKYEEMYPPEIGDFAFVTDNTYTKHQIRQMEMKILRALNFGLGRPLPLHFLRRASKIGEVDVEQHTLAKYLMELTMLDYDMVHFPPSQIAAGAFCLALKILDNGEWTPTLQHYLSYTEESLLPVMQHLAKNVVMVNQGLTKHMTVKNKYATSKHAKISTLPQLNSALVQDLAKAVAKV

Structure (SMILES): CCC(=O)NC(=S)Nc1ccc(NC(=O)c2cccc([N+](=O)[O-])c2C)cc1
- EC50 [1]: > 350 µM (not active)
- CC50 [2]: > 40 µM (active)
- EC50 [3]: > 350 µM (not active)

Structure (SMILES): Cn1c(=O)n(C)c2cc(S(=O)(=O)Nc3ccccc3O)ccc21
- IC50 [4]: > 100 µM (inactive)

Structure (SMILES): O=C(c1cnn2c(-c3ccccc3)cc(-c3ccccc3)nc12)N1CCN(Cc2ccccc2)CC1
- AC50 [5]: 62.6 µM (active)
- CC50 [6]: 15.5 µM (active)

Structure (SMILES): CN(CC(=O)Nc1c(Cl)cccc1Cl)C(=O)CCCN1C(=O)c2ccccc2C1=O
- IC50 [4]: > 100 µM (inactive)

Structure (SMILES): CN1CCc2c(sc(NC(=O)c3ccc4ccccc4c3)c2C(N)=O)C1
- EC50 [7]: > 300 µM (not active)
- EC50 [8]: 3.25 µM (active)
- EC50 [9]: 9.24 µM (active)
- AC50 [5]: 35.3 µM (active)
- EC50 [10]: > 300 µM (inconclusive)
- AC50 [11]: 24.5 µM (active)

Structure (SMILES): COCCNC(=O)c1cc(-c2ccc(-c3ccccc3)cc2)nc2ccccc12
- CC50 [12]: 19.2 µM (active)
- IC50 [13]: 4.81 µM (active)
- IC50 [14]: 7.44 µM (active)
- CC50 [6]: 15.2 µM (active)

Structure (SMILES): C[N+]12CCCCC1[C@@H](CO)CCC2 (stereo partly specified)
- IC50 [15]: > 100 µM (inactive)
- IC50 [16]: 4.19 µM (active)
- IC50 [17]: 5.51 µM (active)
- IC50 [18]: 2.79 µM (active)

Structure (SMILES): CCC(C)NC(=O)c1cc2cc3ccc(OC)cc3nc2s1 (stereo unspecified)
- IC50 [13]: 10.8 µM (active)
- CC50 [6]: 44.8 µM (active)

Structure (SMILES): COc1cccc(C(=O)ON=C(N)c2ccccn2)c1
- EC50 [19]: 2.07 µM (active)
- AC50 [20]: 12.9 µM (active)

Structure (SMILES): CC1=NOC(=O)/C1=C\c1ccc(-c2ccc(Cl)cc2Cl)o1
- AC50 [21]: 7.94 µM (inconclusive)
- IC50 [22]: 20.6 µM (inactive)
- CC50 [12]: > 25 µM (active)
- AC50 [23]: 17.8 µM (inconclusive)
- IC50 [24]: 1.7 µM (active)
- IC50 [14]: > 25 µM (active)
- AC50 [25]: 14.1 µM (inconclusive)
- CC50 [26]: > 3.67 µM (not active)

Structure (SMILES): CC(C)n1cnc2c(Nc3ccc(C(=O)O)cc3)nc(Cl)nc21
- AC50 [20]: 22.2 µM (active)

Structure (SMILES): COC(=O)c1sc(-c2ccc(C(C)(C)C)cc2)cc1NC(=O)c1ccccc1C(=O)O
- AC50 [27]: 0.087 µM (active)
- IC50 [28]: 35.9 µM (active)
- IC50 [29]: 49.9 µM (active)

Structure (SMILES): COc1cc(OC)c2cc[nH]c2c1
- IC50 [30]: > 100 µM (active)
- EC50 [31]: > 112 µM (not active)
- IC50 [32]: 108 µM (active)
- EC50 [19]: > 112 µM (not active)

Structure (SMILES): c1ccc(-c2cc3c(ccc4nonc43)[nH]2)cc1
- EC50 [33]: > 49.7 µM (inactive)
- EC50 [34]: > 49.7 µM (inactive)

Structure (SMILES): Cn1c(=O)cc(OCCCC(=O)Nc2cccc(Cl)c2)c2ccccc21
- EC50 [33]: > 49.7 µM (inactive)
- EC50 [34]: > 49.7 µM (inactive)

Structure (SMILES): CN(C)c1ccc(/C=N/NC(=O)c2cc(-c3ccc4c(c3)OCO4)[nH]n2)cc1
- CC50 [2]: 30.2 µM (active)
